The values below come from paper PMC6934184, “Selective DNA-PKcs inhibition extends the therapeutic index of localized radiotherapy and chemotherapy” (The Journal of Clinical Investigation, 2019).

The target of this test is T1, JAK2 JH1 JH2 (Homo sapiens, UniProt O60674).
T1 construct: JAK2 JH1 JH2; purchased Thermo Fisher Scientific (Life Technologies) SelectScreen
Briefly: SelectScreen Z'LYTE. Format: biochemical. In short, it runs like this: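 SelectScreen broad panel; activity (Z'LYTE, Adapta) plus binding formats. ATP: Km app for CSF1R Z'LYTE; 10 for CAMK1 Adapta. Readout = % per kinase.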

Molecules are shown by their SMILES.

T1 sequence (O60674 532-1132 limits assumed): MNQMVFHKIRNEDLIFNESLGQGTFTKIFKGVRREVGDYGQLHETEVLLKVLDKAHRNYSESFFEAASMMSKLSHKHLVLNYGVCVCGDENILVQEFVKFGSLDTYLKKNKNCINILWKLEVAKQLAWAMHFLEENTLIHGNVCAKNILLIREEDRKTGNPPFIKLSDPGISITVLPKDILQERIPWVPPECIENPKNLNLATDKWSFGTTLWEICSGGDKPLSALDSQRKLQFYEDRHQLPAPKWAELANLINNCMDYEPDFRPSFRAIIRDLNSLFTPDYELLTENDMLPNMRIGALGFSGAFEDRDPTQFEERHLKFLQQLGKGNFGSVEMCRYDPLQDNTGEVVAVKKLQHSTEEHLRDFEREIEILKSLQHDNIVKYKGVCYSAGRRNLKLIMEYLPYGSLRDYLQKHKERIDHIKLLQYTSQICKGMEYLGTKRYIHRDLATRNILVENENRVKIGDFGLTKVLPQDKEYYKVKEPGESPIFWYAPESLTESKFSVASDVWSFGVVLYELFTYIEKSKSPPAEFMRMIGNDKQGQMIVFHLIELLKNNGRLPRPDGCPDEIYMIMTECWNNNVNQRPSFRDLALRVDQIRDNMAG

In the case of `CN(C(=O)CN1CCOCC1)c1ccc2sc3c(-c4cccc5c(=O)cc(N6CC7CCC(C6)O7)oc45)cccc3c2c1` [NU5455], the inhibition – broadly, the relative decrease from the control value, in per cent – at 1 µM was -6.7%.
